Earlier results on three compounds are cited in patent EP4623708A1, “SWEETENER COMPOSITION FOR POUCHED ORAL PRODUCTS” (Nicoventures Trading Limited, priority 2024, dated 2025).

SMILES strings stand for the structures.

For series [1] the following is noted: relative to sugar.

In the case of `CC(/C=C/C=C(C)/C=C/C(=O)O)=C\C=C\C=C(C)\C=C\C=C(C)\C=C\C(=O)O` (stereo in doubt) [norbixin, (2E,4E,6E,8E,10E,12E,14E,16E,18E)-4,8,13,17-tetramethylicosa-2,4,6,8,10,12,14,16,18-nonaenedioic acid], the solubility in water result was “water-soluble”.
In the case of `OC[C@H]1O[C@H](O[C@]2(CCl)O[C@H](CCl)[C@@H](O)[C@@H]2O)[C@H](O)[C@@H](O)[C@H]1Cl` [Sucralose, trichlorogalatosucrose], the “times sweeter than sugar” value in series [1] is “about 600 times”.
On to `COC(=O)/C=C/C(C)=C\C=C\C(C)=C\C=C\C=C(C)\C=C\C=C(C)\C=C\C(=O)O` [bixin, (2E,4E,6E,8E,10E,12E,14E,16Z,18E)-20-methoxy-4,8,13,17-tetramethyl-20-oxoicosa-2,4,6,8,10,12,14,16,18-nonaenoic acid], for which the solubility in water result is given as “insoluble in water”.
